{"source": "ChEMBL document CHEMBL2010706", "about": "“Microfluidic technology: an economical and versatile approach for the synthesis of O-(2-[18F]fluoroethyl)-L-tyrosine ([18F]FET)” (Bioorg Med Chem Lett, 2012)", "key": {"Muscle tissue [1]": {"tested_on": "Muscle tissue", "experiment": "Drug uptake in Balb/c mouse muscle after 10 mins by PET analysis", "assay_type": "ADME, tissue-based", "settings": "in vivo; call rule not given here"}, "[2]": {"experiment": "Drug uptake in mouse EMT6 tumor xenografted in Balb/c mouse assessed per mg of protein after 15 mins by PET analysis", "assay_type": "ADME, Neoplasm", "settings": "in vivo, 0.25 h"}, "[3]": {"experiment": "Drug uptake in mouse EMT6 tumor xenografted in Balb/c mouse after 30 mins by PET analysis", "assay_type": "ADME, Neoplasm", "settings": "in vivo, 0.5 h"}, "Nucleic Acid": {"tested_on": "Nucleic Acid", "experiment": "Ratio of drug uptake in tumor to muscle of Balb/c mouse after 60 mins […] by PET analysis", "assay_type": "ADME, nucleic-acid assay", "settings": "in vivo, 1 h"}, "Muscle tissue [4]": {"tested_on": "Muscle tissue", "experiment": "Drug uptake in Balb/c mouse muscle after 30 to 60 mins by PET analysis", "assay_type": "ADME, tissue-based", "settings": "in vivo"}, "[5]": {"experiment": "Drug uptake in mouse EMT6 tumor xenografted in Balb/c mouse assessed per mg of protein after 100 mins by PET analysis", "assay_type": "ADME, Neoplasm", "settings": "in vivo"}, "[6]": {"experiment": "Drug uptake in mouse EMT6 tumor xenografted in Balb/c mouse after 60 mins by PET analysis", "assay_type": "ADME, Neoplasm", "settings": "in vivo, 1 h"}}, "data": [{"smiles": "N[C@@H](Cc1ccc(OCC[18F])cc1)C(=O)O", "note": "[FLORETYROSINE F18]", "values": [{"measurement": "Drug uptake", "setting": "Muscle tissue [1]", "result": "Active"}, {"measurement": "Drug uptake", "setting": "[2]", "result": 105, "unit": "%ID"}, {"measurement": "SUV", "setting": "[3]", "result": 1.28}, {"measurement": "Ratio", "setting": "Nucleic Acid", "result": 4.04}, {"measurement": "Drug uptake", "setting": "Muscle tissue [4]", "result": "Not Active"}, {"measurement": "Drug uptake", "setting": "[5]", "result": 60, "unit": "%ID"}, {"measurement": "SUV", "setting": "[6]", "result": 1.21}]}]}
